Measured values taken from patent US20220096515A1, “Methods and Formulations for Preventing Neurological or Psychiatric Disorders” (Huntington Medical Research Institutes, priority 2020, published 2022).

Key:
[1] = tested on: Gabrb3^ECKO telencephalon; assay: Microarray gene expression profile of MGE and striatal tissue at E18; format: in vivo, mouse
Procedure: Gene expression profile analysis: RNA samples were prepared from saline-treated Gabrb3^fl/fl, saline-treated Gabrb3^ECKO and NAD^+-treated Gabrb3^ECKO groups from three different brain pools. Total RNA from each of the samples was extracted by using the PicoPure RNA Isolation kit (Arcturus) following the supplier's protocol. Microarray was performed with Mouse Gene 2.0 ST Array (Affymetrix) at the Boston University Microarray & Sequencing Resource, Boston, MA. Mouse Gene 2.0 ST CEL files were normalized to produce gene-level expression values using the implementation of the Robust Multiarray Average (RMA) in the affy package (version 1.36.1) included in the Bioconductor software suite (version 2.11). Principal component analysis (PCA) was analyzed and visualized using Transcriptome Analysis Console 4.0 (Affymetrix). Heatmap visualization and analysis were performed using Morpheus (Broad Institute, Boston, Mass., USA; software.broadinstitute.org/GENE-E/), and ranked by t-test statistics. Violin plot visualization was generated with Z-score using GraphPad Prism v8.0 (GraphPad Software, La Jolla Calif. USA). The gene ontology for gene enrichment study was performed in three GO TERM annotation categories by using the Database for Annotation, Visualization and Integrated Discovery (DAVID) v6.8. Mouse Genome Informatics (MGI) (GO TERM structure categories: cerebral cortex interneuron migration; GABAergic neuron differentiation; interneuron development; MGE derived cells).
In this exemplary embodiment, to gain deeper insights into NAD^+ mediated specific actions in the subcortical telencephalon, a micro-dissection of the MGE and striatal tissue from telencephalic slices of saline-treated Gabrb3^fl/fl mice, saline-treated Gabrb3^ECKO mice, and NAD^+-treated Gabrb3^ECKO mice at E18 was performed. RNA was further extracted, and microarray hybridization on Mouse Gene 2.0 ST arrays (Affymetrix) was performed for Subsequent gene expression analysis (FIG. 7A). Principal component analysis (PCA) plots depicted strict clustering of triplicates from the three samples in the 3D PCA table (FIG. 8A). Differentially expressed genes (fold change cut off ≥+/−50%) in the three groups were compared and represented as heat maps (FIGS. 7B-7C). […] Genes were further classified into specific categories that are essential for embryonic forebrain development: angiogenesis, neurogenesis, GABA signaling and GABA transcription related genes, and the top differentially expressed genes in each category are shown (FIGS. 9A-9E). […] Additionally, differential expression of 10 marker genes in angiogenesis and GABAergic neuron categories in saline-treated Gabrb3^fl/fl, saline-treated Gabrb3^ECKO, and NAD^+-treated Gabrb3^ECKO groups were represented as violin plots (FIGS. 7D-7G).

[2] = tested on: GABAergic neurons isolated at E18 from Gabrb3^ECKO; assay: In vitro neuronal migration assay after in vivo NAD+ treatment paradigm; format: cell-based, mouse; settings: neurons isolated at E18 after in vivo treatment E12-E17
Procedure: Isolation and primary culture of neuronal cells: Primary culture of embryonic GABAergic neurons from CD1 telencephalon or after the saline or NAD+ treatment paradigms were performed using established methods. Briefly, embryonic brains were extracted under a stereo microscope and placed into cold PBS. After removal of the pial membrane, the telencephalon was dissected from each embryonic brain. The telencephalon was minced into 1-2 mm slices in cold PBS. Minced telencephalon was treated with 0.1× trypsin/EDTA at 37° C. for 5 min. Trypsin treatment was stopped by adding FBS-DMEM media and DNase I consecutively. […]
Neuronal migration assay: In preparation for cell migration assays, one well square culture inserts (ibidi GmbH) were placed in the center of a poly-Ornithine/Laminin coated 35 mm dish, to make a small rectangular patch that is labeled outside the dish. […] Neuronal migration was assessed by measuring the distance between the final positions of cells from the border of the rectangular patch was outlined on the first day, using ImageJ software.
To test if the prenatal NAD^+ treatment was able to influence GABAergic neuronal migration, an in vitro neuronal migration assay was performed (FIG. 6M), after the in vivo NAD^+ treatment paradigm (E12-E17). […] Images of GFP^+ cells that had entered the dorsal telencephalon at E18 were collected and analyzed. […]

[3] = tested on: Gabrb3^ECKO mice; assay: Tail suspension test; format: in vivo, mouse; settings: vs saline-treated Gabrb3^ECKO mice
Procedure: Behavioral Experiments: Mice were housed in our animal facility with a 12-hour light cycle with ad libitum access to food and water. Offspring stayed with their mothers until weaning at PND 21 after which males and females were separated. Before all behavioral testing, mice were acclimated to the testing room for 1 hour. Behavioral assays were performed according to established protocols referenced here: self-grooming, light-dark box, tail suspension test, Y-maze, open field locomotion activity, three chamber social interaction test and nest building with nestlets and with shredded paper. Both males and females were used for all behavioral assays. Experimenters scoring behaviors were blinded to the genotypes and treatment. Sample sizes for each assay are noted in figure legends.
Anxiety was next assessed with the classic light-dark transition test which triggers a struggle between the desires to explore a novel environment versus natural aversion of a brightly illuminated open space. […] The Y maze spontaneous alternation test was used to evaluate for spatial learning and memory in the three groups of mice. After introduction to the center of the maze, the mice were given free access to all three arms. […] The total number of arm entries and the sequence of entries are recorded in order to calculate the percentage of alternation. […]

## NC(=O)c1ccc[n+]([C@@H]2O[C@H](COP(=O)([O-])OP(=O)(O)OC[C@H]3O[C@@H](n4cnc5c(N)ncnc54)[C@H](O)[C@@H]3O)[C@@H](O)[C@H]2O)c1 [NAD^+]
[1]; E18
  GABA neuronal subtype and development genes downregulated in Gabrb3^ECKO (Calb2, Sst, Calb1, Sirt2, Ascl1, Nr2f2, Bdnf, Arx, Sox2): rescued
  GABAergic pathway regulatory and axon guidance genes upregulated in Gabrb3^ECKO (Dlx4, Sirt1, Drp2, Foxg1, Daxx, Ablim1, Nrg3): restored to normal expression levels
  angiogenesis genes downregulated in Gabrb3^ECKO (Fgfr3, Thbs1, Serpinf1, Tbx1, Angpt1, Mdk, Plxdc1, Efna1, Tspan12): restored to normal levels
  genes related to inflammation (upregulated in saline-treated Gabrb3^ECKO): restored to normal levels
  vascular/angiogenesis genes upregulated in Gabrb3^ECKO (Fgf6, Flt1, Hand2, Egf, Itgb3, Plg, Epas1, Bai1, Col4a3, Eng): restored to normal expression levels
[1]; vs saline-treated Gabrb3^ECKO group
  purinergic receptor signaling genes (microarray): notable change in purinergic receptor signaling genes
[1]; vs saline-treated Gabrb3^ECKO, fold change cut off ≥+/−50%
  gene expression profile (heat map clusters): shift in the gene expression profile
[2]
  migration of β-Tubulin^+ neurons (cell number and distance): migrated robustly
[3]
  immobility times: significantly lower immobility times
